Values after ≈ are worked out from the molar mass of the structure shown. Where two headings read alike, the source gives them in different places.

Results on 6 molecules are retold here after patent US12404242B2, “Compositions and methods for making and using small molecules in the treatment of cancer” (Reglagene, Inc., priority 2021, dated 2025).

The test system of data set [1] is tubulin. As to the kind of experiment: Tubulin polymerization assay. It counts as biochemical. To be noted: compound 19 at 0.3, 1, 3 and 6 uM; compound 73 at 0.1, 0.3, 1, 3 and 5 uM.
The subject of data set [2] is tubulin. As to the kind of experiment: Tubulin polymerization assay. To be noted: 5 uM (FIG. 41A, 41C) or 1 uM (FIG. 41B). It counts as biochemical. As to the method:
FIG. 41A-41C represent exemplary experiments illustrating inhibition of tubulin polymerization. FIG. 41A illustrates effects of compounds 19, 73, 86, 93 and 94 at 5 uM concentration. FIG. 41B illustrates effects of compounds 93, 94, 95 and 96 at 1 uM concentration.
FIG. 41C illustrates effects of compounds 73, 86, 87 and 88 at 5 uM concentration in accordance with certain embodiments of the present disclosure. Colchicine and vincristine are positive controls.
FIG. 42A-42B represent exemplary experiments illustrating inhibition of tubulin polymerization. FIG. 42A illustrates effects of compound 19 at 0.3, 1, 3 and 6 uM concentrations.
FIG. 42B illustrates effects of compound 73 at […] concentration in accordance with certain embodiments of the present disclosure. Colchicine and nocodazole are positive controls.
In another exemplary method, the effect of the compounds herein on tubulin polymerization was determined. FIG. 41A illustrates effects of compounds 19, 73, 86, 93 and 94 at 5 uM concentration, FIG. 41B illustrates effects of compounds 93, 94, 95 and 96 at 1 uM concentration, or FIG. 41C illustrates effects of compounds 87 and 88 at 5 uM concentration in accordance with certain embodiments of the present disclosure. Colchicine and vincristine are positive controls.
The dose dependent effect of compounds 19 and 73 on tubulin polymerization was also determined. FIG. 42A illustrates effects of compound 19 at 0.3, 1, 3 and 6 uM concentrations, and FIG. 42B illustrates effects of compound 73 at 0.1, 0.3, 1, 3 and 5 uM concentration in accordance with certain embodiments of the present disclosure. Colchicine and nocodazole are positive controls.

In data set [3] the test system is LN18 glioblastoma cancer cells. As to the kind of experiment: Combination with Temozolomide, Bliss synergy in LN18 cells. It counts as cell-based. To be noted: Temozolomide 0 to 1000 uM, compound 0.625 to 10 uM. As to the method: Synergy was calculated with the Bliss independence model. Compounds were combined at concentrations of 0 to 1000 uM for Temozolomide and 0.625 to 10 uM for compounds 19 and 59.

Data set [4] has as its system colchicine-site of tubulin. As to the kind of experiment: Fluorescence-based colchicine competitive binding assay. To be noted: 50 uM (FIG. 43). Here is the method:
FIG. 43 represent fluorescence-based colchicine competitive binding assay with compounds 19, 73 and 93 at 50 uM concentration in accordance with certain embodiments of the present disclosure. Nocodazole (NOC) is positive control.
(§1) Microtubule-targeting agents that bind at the colchicine-site of tubulin are of interest in antitumoral therapy due to their action as anti-mitotics. […] Nocodazole was used as a positive control. […] Colchicine (COL) and nocodazole (NOC) are positive controls while vincristine (VINC) is negative control.

Another data set relates to U87 glioblastoma cells. Nature of the data set: Combination with ionizing radiation in U87 cells. Format: cell-based. To be noted: 2 Gy ionizing radiation and 0.04-0.3 uM compound; versus ionizing radiation alone.
Data set [5] is described as follows: Kinetic solubility in aqueous PBS buffer (HPLC-MS). It counts as physicochemical. To be noted: kinetic from dmso stock, DMSO stock mixed with aqueous PBS buffer, filtered, read-out: Kinetic Solubility. In a few lines: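 A concentrated DMSO stock was mixed with aqueous PBS buffer and filtered. The filtrate was quantified against an HPLC-MS calibration curve.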

For the next data set, the system named is LN18 cells. As to the kind of experiment: Cell viability (AlamarBlue), LN18 glioma cells. Format: cell-based. To be noted: Homo sapiens, LN-18, 72 hours of treatment. As to the method: (§2) In another exemplary method, half maximal effective concentration (EC50) was determined for some compounds and their isomers as disclosed herein in a variety of human cancer cell lines. In brief, cells from two prostate cancer cell lines (LNCaP, 22RV1), one glioblastoma cell line (U87), one breast cancer cell line (MCF7), a glioma cell line (LN18), a normal prostate cell line (RWPE1), and a glioblastoma cell line (T98G) were plated in a multi-well plate. After 24 hours, one of the compounds herein was added to the well at increasing concentrations. After 72 hours of treatment, cell viability was assessed using AlamrBlue® (Invitrogen) and fluorescence was read using the CLARIOstar Plus Multilabel Plate Reader (BMG Labtech). Samples were normalized to no treatment controls. EC50 values were determined using GraphPad Prism.
Background: Resazurin is reduced to fluorescent resorufin, in cell work by metabolically active cells.

For data set [6], the system named is colchicine binding site (tubulin) in MCF7 cell lines. Nature of the data set: N,N'-ethylene-bis(iodoacetamide) (EBI) competition assay in MCF7 cells. It counts as cell-based. To be noted: MCF7 cell lines (FIG. 44).
Text: FIG. 44 represent N,N′-ethylene-bis(iodoacetamide) (EBI) competition assay with compounds 19, 73 and 93 in MCF7 cell lines showing binding of compounds in colchicine binding site in accordance with certain embodiments of the present disclosure. Colchicine (COL) and nocodazole (NOC) are positive controls while vincristine (VINC) is negative control.
as §1

The test system of the next data set is U87 cells. Nature of the data set: Cell viability (AlamarBlue), U87 glioblastoma cells. It counts as cell-based, human. To be noted: Homo sapiens, U-87 MG, 72 h, 72 hours of treatment. In a few lines:
(§3)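 Plate cells; wait 24 h; add compound at increasing concentrations; incubate 72 h; read AlamarBlue fluorescence; normalize to untreated controls; fit EC50.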

Data set [7] relates to 22Rv1 prostate cancer cells. Nature of the data set: Combination with Rabusertib, Bliss synergy in 22Rv1 cells. It counts as cell-based. To be noted: Rabusertib 0 to 30 uM, compound 0.625 to 5 uM. As to the method: Synergy was calculated with the Bliss independence model. Compounds were combined at concentrations of 0 to 30 uM for Rabusertib and 0.625 to 5 uM for compounds 73 and 76.

The next data set relates to 22RV1 cells. Nature of the data set: Cell viability (AlamarBlue), 22RV1 prostate cancer cells. Format: cell-based, human. To be noted: Homo sapiens, 22Rv1, 72 h, 72 hours of treatment. Summed up:
as §3

A further data set has as its system T98G cells. Nature of the data set: Cell viability (AlamarBlue), T98G glioblastoma cells. It counts as cell-based. To be noted: Homo sapiens, 72 hours of treatment. As to the method: as §2
Data set [8] is described as follows: Plasma and brain levels in healthy mouse. It counts as in vivo. To be noted: oral dose. From the text: FIG. 53A-53B represent an exemplary experiment illustrating concentration of Compound 98 in plasma after oral dose (FIG. 53A); FIG. 53B represents levels of Compound 98 in plasma and brain tissue after administration to a rodent model in accordance with certain embodiments of the present disclosure.
FIG. 53A illustrates concentrations of Compound 98 in healthy mouse plasma over time. FIG. 53B and Table 9 illustrates concentrations of Compound 98 in healthy mouse plasma and brain at 0.5, 1 and 2 hrs.

[9] abbreviates: brain, read-out: Healthy Brain concentration.
Where [10] appears, read: plasma, read-out: Plasma concentration.

For the molecule `COC1CC(C(=O)NC(=O)Nc2ccc(Oc3ccc(Cl)cn3)c(C)c2)C1` (stereo not drawn) [Compound 19, N-((4-((5-chloropyridin-2-yl)oxy)-3-methylphenyl)carbamoyl)-3-methoxycyclobutane-1-carboxamide], the “dose dependent effect on tubulin polymerization” value in the data set on tubulin [1] is given as “significantly inhibit tubulin polymerization in a dose dependent manner”. Further, in the data set with tubulin [2], the “effect on tubulin polymerization” value is on record as “significantly inhibit tubulin polymerization”. The “Bliss Synergy value, combination with Temozolomide” value in data set [3] (LN18 cells, Bliss independence model) is on record as 29.5. Further, the “effect of combination with Temozolomide on cancer cell viability” value in data set [3] is “synergistic decrease in cancer cell viability”. In addition, the “colchicine competitive binding assay result” value in [4] is “significantly inhibit microtubule assembly”. In addition, the “cancer cell viability with ionizing radiation plus compound” value in the data set with U87 glioblastoma cells is “reduced cancer cell viability relative to cells treated with ionizing radiation alone”. The solubility (kinetic) (in general, solubility judged after dilution from a stock solution rather than from solid) in data set [5] was 5.68 µM (≈ 2.21 µg/mL). For the same molecule, a half-maximal effect in the data set on LN18 cells (EC50) was put at 0.83 µM. For the same molecule, the “EBI competition assay result” value in data set [6] is “inhibitors of EBI binding”.
As to `COC1CC(C(=O)NC(=O)Nc2cc(C)c(Oc3ncc(Cl)cn3)c(F)c2)C1` (stereo not drawn) [Compound 73, N-((4-((5-chloropyrimidin-2-yl)oxy)-3-fluoro-5-methylphenyl)carbamoyl)-3-methoxycyclobutane carboxamide], the “dose dependent effect on tubulin polymerization” value with tubulin [1] is recorded as “significantly inhibit tubulin polymerization in a dose dependent manner”. The “effect on tubulin polymerization” value in the data set with tubulin [2] is listed as “significantly inhibit tubulin polymerization”. Moreover, the results for the EC50 in the data set on U87 cells and in the data set with 22RV1 cells were 0.12 µM and 0.068 µM, respectively. The “colchicine competitive binding assay result” value in data set [4] was “significantly inhibit microtubule assembly”. In addition, the “Bliss Synergy value, combination with Rabusertib” value in [7] (22Rv1 cells, Bliss independence model) turned out to be 20.7. Further, in data set [7], the “effect of combination with Rabusertib on cancer cell viability” value is on record as “synergistic decrease in cancer cell viability”. Further, the “EBI competition assay result” value in data set [6] is on record as “inhibitors of EBI binding”.
Consider `COC12CC(C(=O)NC(=O)Nc3cc(C)c(Oc4ncc(Cl)cn4)c(F)c3)(C1)C2` [Compound 90, N-((4-((5-chloropyrimidin-2-yl)oxy)-3-fluoro-5-methylphenyl)carbamoyl)-3-methoxybicyclo[1.1.1]pentane-1-carboxamide], for which the half-maximal effective concentration (EC50) (as a rule, the concentration that produces a half-maximal response) with U87 cells stood at 0.065 µM; in the data set with LN18 cells it was 0.034 µM; in the data set with T98G cells it was 0.0384 µM. The solubility (kinetic) in [5] amounted to 2.17 µM (≈ 0.913 µg/mL).
For the molecule `COC1CC(C(=O)NC(=O)Nc2ccc(C)c(Oc3nccs3)c2)C1` (stereo not drawn) [Compound 93, 3-methoxy-N-((4-methyl-3-(thiazol-2-yloxy)phenyl)carbamoyl)cyclobutane-1-carboxamide], the “effect on tubulin polymerization” value with tubulin [2] was “significantly inhibit tubulin polymerization”. Further, a half-maximal response in the data set on U87 cells (EC50) required 0.03 µM. The “colchicine competitive binding assay result” value in data set [4] is recorded as “significantly inhibit microtubule assembly”. For the same molecule, the kinetic solubility in data set [5] turned out to be 8.9 µM (≈ 3.22 µg/mL). Moreover, the “EBI competition assay result” value in [6] is recorded as “inhibitors of EBI binding”.
Take `COC12CC(C(=O)NC(=O)Nc3ccc(C)c(Oc4ncccn4)c3)(C1)C2` [Compound 97, 3-methoxy-N-((4-methyl-3-(pyrimidin-2-yloxy)phenyl)carbamoyl)bicyclo[1.1.1]pentane-1-carboxamide]: the EC50 in the data set on U87 cells amounted to 0.02 µM; with LN18 cells it was 0.011 µM; with T98G cells, 0.026 µM. In [5], the solubility (kinetic) amounted to 5.8 µM (≈ 2.14 µg/mL).
On to `COC12CC(C(=O)NC(=O)Nc3ccc(C)c(Oc4ccccn4)c3)(C1)C2` [Compound 98, 3-methoxy-N-((4-methyl-3-(pyridin-2-yloxy)phenyl)carbamoyl)bicyclo[1.1.1]pentane-1-carboxamide], for which the results for the concentration at 0.5 h in data set [8] (setting [9]) and in data set [8] (setting [10]) were 230 ng/g and 424 ng/mL, respectively. Moreover, the concentration at 1 h in data set [8] (setting [9]) worked out at 234 ng/g; in data set [8] (setting [10]), 490 ng/mL. Further, the concentration at 2 h is 257 ng/g in data set [8] (setting [9]) and 399 ng/mL in data set [8] (setting [10]). The EC50 is 0.02 µM in the data set on U87 cells, 0.07 µM in the data set on LN18 cells and 0.0189 µM with T98G cells.
